# “Also recorded” adds a separate entry of the source.
# Columns and labels:
# [1] = test system: long-chain DNA (pUC-II′; SEQ ID NO:7); assay: DNA alkylation of 5′-Texas Red-labeled long-chain DNA, analysed by polyacrylamide gel electrophoresis; format: biochemical; settings: 23° C., 8 hours, FIG. 1
# Description: A 5′-Texas Red-labeled DNA fragment (450 bp) (pUC-II′, SEQ ID NO:7) was prepared by a PCR method using the 5′-Texas Red-labeled 19-base-pair primer (pUC18 forward, 328-345; SEQ ID NO:6) and the 21-base-pair primer (pUC18 reverse, 1861-1881; SEQ ID NO:5), puc18 being used as a template.
# The reaction of compounds (3-1) and (4-1) prepared in the above-described Synthesis Examples with DNA was studied using the long-chain DNA (pUC-II′; SEQ ID NO:7). An alkylation reaction was performed at 23° C. for 8 hours. The sequence alkylated was analyzed by polyacrylic gel electrophoresis for sequence determination. […] This sequence specificity can be explained by a model in which each compound dimerizes in the DNA minor groove to recognize the base sequence.
# Analysis by polyacrylamide gel electrophoresis was performed by the following process: A standard reaction solution containing the 5′-Texas Red-end-labeled DNA fragment (10 nM), DMF (10% (v/v)), and an agent having a concentration described above in a sodium phosphate buffer (5 mM, total volume: 10 μL, pH=7.0) was charged into a microfuge tube (Eppendorf) and left standing at 23° C. for 8 hours. After completion of the reaction, the reaction was quenched by the addition of calf thymus DNA (1 mM, 1 μL). The resulting mixture was shaken at 90° C. for 5 minutes. […]
# [2] = Stability under acidic and alkaline conditions by HPLC; format: physicochemical
# Description: Analysis of stability under acidic and alkaline conditions by HPLC was performed by the following process: A reaction solution containing compound (3-1) or (4-1) (100 μM) in a total volume of 10 μL of an aqueous solution of 5% HCl (pH=1, DMF:H2O=1:9) or an aqueous solution of 5% NaHCO3 (pH=9, DMF:H2O=1:9) was charged into a microfuge tube (Eppendorf) and left standing at 37° C. After 30 minutes, 2 hours, and 24 hours, analysis of compound (4-1) (16.8 min) and compound (3-1) (15.1 min) was performed by HPLC (linear gradient of acetonitrile 0-100% in 50 mM ammonium formate, 20 min, flow rate: 1.0 mL/min, 254 nm).
# The Py-Im polyamide containing the indole linker was evaluated for stability by product analysis on HPLC using compounds (4-1) and (3-1). […] Compound (4-1) was converted into compound (3-1) (30 minutes: 50%, 2 hours: 78%) in the alkaline aqueous NaHCO3 solution (pH=9) (left standing at 37° C. for 24 hours). […] Compound (3-1) was readily converted into compound (4-1) (30 minutes: 96%) in the acidic aqueous HCl solution (pH=1) (37° C.).
# [3] = test system: human ER(+) breast cancer Br-10; assay: Antitumor activity against transplantable human breast cancer in nude mice; format: in vivo, BALB/cA-nu/nu mice; settings: for T/C (%): treated group / control group ×100
# Description: Antitumor activity of compound (4-2) against transplantable human ER(+) breast cancer Br-10 in nude mice was studied. Human ER(+) breast cancer Br-10 was subcutaneously transplanted in dorsal portions of 8-week-old BALB/cA-nu/nu mice through a trocar. Injection of 0.1 mL of EP Hormone Depot was intramuscularly administered in Br-10-transplant mice simultaneously with the transplantation. When the tumor volume reached about 100 mm^3, the mice were divided into 5 mice/group, and then the administration started.
# Compound (4-2) was dissolved in ethanol, diluted with physiological saline, and subcutaneously injected in divided doses into 3 or 4 portions near the tumor once a day and 3 times every 3 days. The dose of compound (4-2) was 50 mg/kg (about 1 mg/mouse) in a volume of 0.05 mL/10 g. Physiological saline was subcutaneously injected in the control group. The length of the major axis (L) and the length of the minor axis (W) were measured every 3 days. The tumor volume was calculated with the following formula: Tumor volume (mm^3)=L(mm)×W^2(mm^2)/2 Comparison of the tumor volume between the compound (4-2) treated group and the control group was performed. […] Values shown in the table show relative estimation of each group when the tumor volume after 1 day in each group is defined as 1.0; and relative estimation calculated with (tumor volume of compound (4-2) treated group: T)/(tumor volume of control group: C)×100%.
# [4] = test system: long-chain DNA (pUC-II; SEQ ID NO:4, pUC-I′; SEQ ID NO:1); assay: DNA alkylation of 5′-Texas Red-labeled long-chain DNA, analysed by polyacrylamide gel electrophoresis; format: biochemical
# Description: A 5′-Texas Red-labeled DNA fragment (450 bp) (pUC-I′, SEQ ID NO:1) was prepared by a PCR method using a 5′-Texas Red-labeled 20-base-pair primer, i.e., 5′-TexRed-[…]-3′ (pUC18 forward, 780-799; SEQ ID NO:2), and a 20-base-pair primer, i.e., 5′-[…]-3′ (pUC18 reverse, 1459-1478; SEQ ID NO:3), puc18 being used as a template. The DNA fragment was in a double-stranded state including a complementary strand (the following fragments were in the same state).
# A 5′-Texas Red-labeled DNA fragment (450 bp) (pUC-II, SEQ ID NO:4) was prepared by a PCR method using a 5′-Texas Red-labeled 21-base-pair primer, i.e., 5′-TexRed-[…]-3′ (pUC18 reverse, 1861-1881; SEQ ID NO:5), and a 19-base-pair primer, i.e., 5-TGTAAAACGACGGCCAGTG-3′ (pUC18 forward, 328-345; SEQ ID NO:6), puc18 being used as a template.
# (§1) Analysis by polyacrylamide gel electrophoresis was performed by the following process: A standard reaction solution containing the 5′-Texas Red-end-labeled DNA fragment (10 nM), DMF (10% (v/v)), and an agent having a concentration described above in a sodium phosphate buffer (5 mM, total volume: 10 μL, pH=7.0) was charged into a microfuge tube (Eppendorf) and left standing at 23° C. for 8 hours. After completion of the reaction, the reaction was quenched by the addition of calf thymus DNA (1 mM, 1 μL). The resulting mixture was shaken at 90° C. for 5 minutes. The DNA obtained by centrifugation under reduced pressure was dissolved by the addition of 8 μl, of loading dye (fushin red solution in DMF), shaken at 94° C. for 20 minutes, and then immediately cooled to 0° C. A 2-μL aliquot was separated electrophoretically on a 6% denaturing polyacrylamide gel using a Hitachi 5500-S DNA sequencer. The following tests were conducted in a similar way.
# The reaction of compounds (3-2) and (3-3) prepared in the above-described Synthesis Examples with DNA was studied using the long-chain DNA (pUC-II; SEQ ID NO:4, pUC-I′; SEQ ID NO:1). An alkylation reaction was performed for 8 hours. The sequence alkylated was analyzed by polyacrylic gel electrophoresis for sequence determination. […] However, the difference in sequence recognition ability was observed. […] From the stand point of the sequence recognition ability, the molecular design of compound (3-2) was excellent.
# [5] = test system: long-chain DNA (λ-F10906; SEQ ID NO:8); assay: as above; format: biochemical; settings: λ-F10906, nanomolar concentrations, FIG. 4
# Description: A 5′-Texas Red-labeled DNA fragment (537 bp) (λ-F10906; SEQ ID NO:8) was prepared by a PCR method using a 5′-Texas Red-labeled 23-base-pair primer, i.e., 5′-TexRed-[…]-3′ (λ-DNA forward, 10960-10982; SEQ ID NO:9), and a 20-base-pair primer, i.e., 5′-[…]-3′ (λ-DNA reverse, 37007-37026; SEQ ID NO:10), λ-DNA being used as a template.
# as §1
# The reaction of compounds (3-2), (3-4), and (3-5) with DNA was studied using the long-chain DNA (λ-F10906; SEQ ID NO:8). The DNA-alkylating ability of each compound was evaluated.
# [6] = 8 hours, pUC-II and pUC-I′, FIG. 2
smiles,measurement,setting,value
"CC(=O)Nc1cn(C)c(C(=O)Nc2cn(C)c(C(=O)Nc3ccc4[nH]c(C(=O)N5CC6CC67C5=CC(=O)c5ccccc57)cc4c3)n2)n1 (centres unmarked) [compound (3-1), AcImIm-Indole-CBI]",sequence-specific DNA alkylation,[1],selectively alkylated adenine located at site 1 (5′-CGGCCA-3′) at nanomolar concentrations
same,conversion into compound (4-1),"[2]; acidic aqueous HCl solution pH=1, 37° C., 30 minutes",96%
"CC(=O)Nc1cn(C)c(C(=O)Nc2cn(C)c(C(=O)Nc3cc(C(=O)Nc4cc(C(=O)NCCCC(=O)Nc5cn(C)c(C(=O)Nc6cc(C(=O)Nc7ccc8[nH]c(C(=O)N9CC(CCl)c%10c9cc(O)c9ccccc%109)cc8c7)n(C)c6)n5)n(C)c4)n(C)c3)n2)n1 (centres unmarked) [compound (4-2), AcImImPyPy-γ-ImPy-Indole-seco-CBI]",suppression of tumor growth,"[3]; 50 mg/kg subcutaneous near the tumor, Br-10 in nude mice",suppression of tumor growth was observed after the first administration
same,toxicity (weight loss of mice and the like),"[3]; 50 mg/kg subcutaneous, nude mice",toxicity that causes the weight loss of mice and the like was not observed
same,relative tumor volume (after 1 day = 1.0),"[3]; after 1 day, 50 mg/kg subcutaneous near the tumor",1.0
same,T/C (%),[3]; after 1 day,100%
same,relative tumor volume (after 1 day = 1.0),"[3]; after 4 days, 50 mg/kg subcutaneous near the tumor",1.1
same,T/C (%),[3]; after 4 days,78.6%
same,relative tumor volume (after 1 day = 1.0),"[3]; after 7 days, 50 mg/kg subcutaneous near the tumor",1.4
same,T/C (%),[3]; after 7 days,82.4%
same,relative tumor volume (after 1 day = 1.0),"[3]; after 10 days, 50 mg/kg subcutaneous near the tumor",1.4
same,T/C (%),[3]; after 10 days,66.7%
same,relative tumor volume (after 1 day = 1.0),"[3]; after 13 days, 50 mg/kg subcutaneous near the tumor",1.5
same,T/C (%),[3]; after 13 days,55.6%
same,relative tumor volume (after 1 day = 1.0),"[3]; after 16 days, 50 mg/kg subcutaneous near the tumor",2.0
same,T/C (%),[3]; after 16 days,64.5%
"CC(=O)Nc1cn(C)c(C(=O)Nc2cn(C)c(C(=O)Nc3ccc4[nH]c(C(=O)N5CC(CCl)c6c5cc(O)c5ccccc65)cc4c3)n2)n1 (centres unmarked) [compound (4-1), AcImIm-Indole-seco-CBI]",sequence-specific DNA alkylation,[1],selectively alkylated adenine located at site 1 (5′-CGGCCA-3′) at nanomolar concentrations
same,conversion into compound (3-1),"[2]; alkaline aqueous NaHCO3 solution pH=9, 37° C., 30 minutes",50%
same,conversion into compound (3-1),"[2]; alkaline aqueous NaHCO3 solution pH=9, 37° C., 2 hours",78%
same,formation of other hydrolysates,"[2]; alkaline aqueous NaHCO3 solution pH=9, 37° C., 24 hours",No other hydrolysates were formed
same,hydrolysis in acidic aqueous HCl solution,"[2]; pH=1, 37° C., 24 hours",not hydrolyzed at all
"CC(=O)Nc1cn(C)c(C(=O)Nc2cn(C)c(C(=O)Nc3cc(C(=O)NCCCC(=O)Nc4cn(C)c(C(=O)Nc5ccc6[nH]c(C(=O)N7CC8CC89C7=CC(=O)c7ccccc79)cc6c5)n4)n(C)c3)n2)n1 (centres unmarked) [compound (3-3), AcImImPy-γ-Im-Indole-CBI]",alkylated sites (sequence recognition ability),[4]; [6],"alkylation of site 4 (5′-AGCCA-3′), which was a match sequence, was observed; also recorded: single-base-pair mismatch sequences in site 1 (5′-AGCTA-3′), site 2 (5′-AGTCA-3′), site 5 (5′-TACCA-3′), and the like were also observed"
same,efficiency of DNA alkylation,[4]; [6],efficient DNA alkylation comparable with that of a known Py-Im polyamide having a vinyl linker was observed at nanomolar concentrations
same,alkylation of guanine at match site 5′-TGCCG-3′,[4]; pUC-I′ (SEQ ID NO:1),no alkylation of guanine was observed
"CC(=O)Nc1cn(C)c(C(=O)Nc2cn(C)c(C(=O)Nc3cc(C(=O)Nc4cc(C(=O)NCCCC(=O)Nc5cc(C(=O)Nc6cc(C(=O)Nc7ccc8[nH]c(C(=O)N9CC%10CC%10%11C9=CC(=O)c9ccccc9%11)cc8c7)n(C)c6)n(C)c5)n(C)c4)n(C)c3)n2)n1 (centres unmarked) [compound (3-4), AcImImPyPy-γ-PyPy-Indole-CBI]","sequence-specific DNA alkylation, alkylated sites",[5],"Sequence-specific DNA alkylation (site 6: 5′-AATCCA-3′, site 7: 5′-TAACCA-3′)"
"CC(=O)Nc1cn(C)c(C(=O)Nc2cc(C(=O)Nc3cc(C(=O)Nc4cc(C(=O)NCCCC(=O)Nc5cn(C)c(C(=O)Nc6cc(C(=O)Nc7ccc8[nH]c(C(=O)N9CC%10CC%10%11C9=CC(=O)c9ccccc9%11)cc8c7)n(C)c6)n5)n(C)c4)n(C)c3)n(C)c2)n1 (centres unmarked) [compound (3-5), AcImPyPyPy-γ-ImPy-Indole-CBI]","sequence-specific DNA alkylation, alkylated sites",[5],alkylation of an only mismatch sequence (site 1: 5′-TGCTCA-3′) was observed
